US11098043B2, “Certain imidazopyridines as cyclic AMP response element binding (CREB) binding protein (CBP) inhibitors and uses thereof” (University of Massachusetts, priority 2017, dated 2021)

Experiments:
BRD4(1) bromodomain = molecular target: T1, BRD4(1) bromodomain (Homo sapiens, UniProt O60885); assay: AlphaScreen in vitro binding assay with BRD4; conditions: isolated BRD4 bromodomain, means of at least two determinations
T1 construct: final concentrations of His-BRD4(1) at 20 nM
Protocol: (§1) To determine the binding selectivity of compounds provided, AlphaScreen in vitro binding assays were performed with either CBP or BRD4.
Assays were performed with minor modifications from the manufacturer's protocol (Perkin Elmer, USA). All reagents were diluted in AlphaScreen™ buffer (50 mM HEPES, 150 mM NaCl, 0.01% v/v Tween-20, 0.1% w/v BSA, pH 7.4). After addition of Alpha beads to master solutions, all subsequent steps were performed under low light conditions. […] Plates were spun down at 1000 rpm. A 10-point 1: √{square root over (sqrt(10))} serial dilution of compounds in DMSO was prepared at 200× the final concentration. 100 nL of compound from these stock plates were added by pin transfer using a Janus Workstation (PerkinElmer). A 2× solution of streptavidin-coated donor beads with a final concentration of 10 μg/ml was added in a 10 μL volume. The plates were spun down again at 1000 rpm and sealed with foil to prevent light exposure and evaporation. The plates were then incubated at room temperature for 1 hour and read on an Envision 2104 (PerkinElmer) using the manufacturer's protocol. IC50 values were calculated using a 4-parameter logistic curve in Prism 6 (GraphPad Software, USA) after normalization to DMSO-treated negative control wells.

CBP bromodomain = molecular target: T2, CBP bromodomain (Homo sapiens, UniProt Q92793); assay: AlphaScreen in vitro binding assay with CBP; conditions: for IC50: AlphaScreen, isolated CBP bromodomain, means of at least two determinations; for Selectivity Value [BRD4(1) IC50 (μM)/CBP IC50 (μM)]: ratio BRD4(1) IC50 / CBP IC50
T2 construct: docked complex of Compound 21 with CBP bromodomain
T2 sequence (Q92793 1085-1192 limits assumed): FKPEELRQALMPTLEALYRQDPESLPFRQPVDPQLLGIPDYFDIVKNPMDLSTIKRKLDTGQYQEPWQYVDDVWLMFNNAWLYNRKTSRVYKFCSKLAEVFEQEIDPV
Protocol: as §1
Assays were performed with minor modifications from the manufacturer's protocol (Perkin Elmer, USA). All reagents were diluted in AlphaScreen™ buffer (50 mM HEPES, 150 mM NaCl, 0.01% v/v Tween-20, 0.1% w/v BSA, pH 7.4). After addition of Alpha beads to master solutions, all subsequent steps were performed under low light conditions. A 2× solution of components with final concentrations of His-BRD4(1) at 20 nM or His-CBP at 50 nM, Ni-coated Acceptor bead at 10 μg/ml, and biotinylated-JQ1 at 10 nM or biotinylated peptide at 100 nM was added in 10 μL to 384-well plates (AlphaPlate-384, PerkinElmer) using an EL406 liquid handler (Biotek, USA). Plates were spun down at 1000 rpm. A 10-point 1: √{square root over (sqrt(10))} serial dilution of compounds in DMSO was prepared at 200× the final concentration. 100 nL of compound from these stock plates were added by pin transfer using a Janus Workstation (PerkinElmer). A 2× solution of streptavidin-coated donor beads with a final concentration of 10 μg/ml was added in a 10 μL volume. The plates were spun down again at 1000 rpm and sealed with foil to prevent light exposure and evaporation. The plates were then incubated at room temperature for 1 hour and read on an Envision 2104 (PerkinElmer) using the manufacturer's protocol. IC50 values were calculated using a 4-parameter logistic curve in Prism 6 (GraphPad Software, USA) after normalization to DMSO-treated negative control wells.

`COc1ccc(CCc2nc3cc(-c4c(C)noc4C)ccn3c2Nc2ccc(Cl)cc2)cc1` [Compound 25] was tested, and the IC50 (BRD4(1) bromodomain) was 7.95 µM, the IC50 (CBP bromodomain) was 1.61 µM and the “Selectivity Value [BRD4(1) IC50 (μM)/CBP IC50 (μM)]” value (shortened to “Selectivity Value”) (CBP bromodomain) was 5.
With `COc1ccc(CCc2nc3cc(-c4c(C)noc4C)ccn3c2NC2CCCCC2)cc1` [Compound 18, N-cyclohexyl-7-(3,5-dimethylisoxazol-4-yl)-2-(4-methoxyphenethyl)imidazo[1,2-a]pyridin-3-amine] the IC50 (BRD4(1) bromodomain) was 6.59 µM, the IC50 (CBP bromodomain) was 0.159 µM and the “Selectivity Value” value (CBP bromodomain) was 41.
`COc1ccc(Cc2nc3cc(-c4c(C)noc4C)ccn3c2NC2CCCCC2)cc1` [Compound 26] was tested, and the IC50 (BRD4(1) bromodomain) was 11.2 µM, the IC50 (CBP bromodomain) was 6.07 µM and the “Selectivity Value” value (CBP bromodomain) was 2.
With `COc1ccc(CCc2nc3cc(-c4c(C)noc4C)ccn3c2NCc2ccccc2)cc1` [Compound 24] the IC50 (BRD4(1) bromodomain) was 8.47 µM, the IC50 (CBP bromodomain) was 1.92 µM and the “Selectivity Value” value (CBP bromodomain) was 4.
`Cc1noc2ccc(-c3ccn4c(NC5CCCCC5)c(CCc5ccccc5)nc4c3)cc12` [Compound 12] was tested, and the IC50 (BRD4(1) bromodomain) was 3.03 µM, the IC50 (CBP bromodomain) was over 50 µM and the “Selectivity Value” value (CBP bromodomain) was under 1.
With `COc1ccc(CCc2nc3cc(-c4c(C)noc4C)ccn3c2NC2CCCCC2)cc1Cl` [Compound 21, 2-(3-chloro-4-methoxyphenethyl)-N-cyclohexyl-7-(3,5-dimethylisoxazol-4-yl)imidazo[1,2-a]pyridin-3-amine] the IC50 (BRD4(1) bromodomain) was 5.19 µM.
In the case of `COc1ccc(-c2nc3cc(C)cc(C)n3c2NC(C)(C)CC(C)(C)C)cc1` [Compound 8, 2-(4-methoxyphenyl)-5,7-dimethyl-N-(2,4,4-trimethylpentan-2-yl)imidazo[1,2-a]pyridin-3-amine], the IC50 (CBP bromodomain) is reported as 16.3 µM and the “Selectivity Value” value (CBP bromodomain) is reported as over 3.
Work on `Cc1sc2c(c1C)C(c1ccc(Cl)cc1)=N[C@@H](CC(=O)OC(C)(C)C)c1nnc(C)n1-2` [JQ1, reference compound] yielded an IC50 (CBP bromodomain) of over 50 µM.
In the case of `COc1ccc(-c2nc3cc(-c4c(C)noc4C)ccn3c2NC23CC4CC(CC(C4)C2)C3)cc1` [Compound 2], the IC50 (CBP bromodomain) is reported as 2.22 µM and the “Selectivity Value” value (CBP bromodomain) is reported as over 23.
`CCOc1ccc(CCc2nc3cc(-c4c(C)noc4C)ccn3c2NC2CCCCC2)cc1Cl` [Compound 31] was tested, and the IC50 (CBP bromodomain) was 2.54 µM and the “Selectivity Value” value (CBP bromodomain) was 20.
In the case of `COc1ccc(CCc2nc3cc(-c4c(C)noc4C)ccn3c2NC(C)(C)C)cc1` [Compound 20], the IC50 (CBP bromodomain) is reported as 2.34 µM and the “Selectivity Value” value (CBP bromodomain) is reported as over 21.
For `COc1ccc(CCCc2nc3cc(-c4c(C)noc4C)ccn3c2NC(C)(C)CC(C)(C)C)cc1` [Compound 35], the “Selectivity Value” value (CBP bromodomain) was 1.
`COc1ccc(-c2nc3cc(C)cc(C)n3c2NC23CC4CC(CC(C4)C2)C3)cc1` [Compound 1, N-((3s,5s,7s)-adamantan-1-yl)-2-(4-methoxyphenyl)-5,7-dimethylimidazo[1,2-a]pyridin-3-amine] was tested, and the IC50 (CBP bromodomain) was 16.1 µM and the “Selectivity Value” value (CBP bromodomain) was over 3.
With `CCOc1ccc(CCc2nc3cc(-c4c(C)noc4C)ccn3c2NC(C)(C)CC(C)(C)C)cc1Cl` [Compound 32] the IC50 (CBP bromodomain) was 20.5 µM and the “Selectivity Value” value (CBP bromodomain) was over 2.
In the case of `COc1ccc(-c2nc3cc(-c4c(C)noc4C)ccn3c2NC2CCCCC2)cc1` [Compound 3], the IC50 (CBP bromodomain) is reported as 14.2 µM and the “Selectivity Value” value (CBP bromodomain) is reported as over 4.
`Cc1noc(C)c1-c1ccn2c(NCC(=O)OC(C)(C)C)c(CCc3ccccc3)nc2c1` [Compound 4] was tested, and the IC50 (CBP bromodomain) was 7.83 µM and the “Selectivity Value” value (CBP bromodomain) was over 6.
`COc1ccc(CCc2nc3cc(-c4c(C)noc4C)ccn3c2NC(C)(C)CC(C)(C)C)cc1` [Compound 28, 7-(3,5-dimethylisoxazol-4-yl)-2-(4-methoxyphenethyl)-N-(2,4,4-trimethylpentan-2-yl)imidazo[1,2-a]pyridin-3-amine] was tested, and the IC50 (CBP bromodomain) was 20.9 µM and the “Selectivity Value” value (CBP bromodomain) was over 2.
For `Cc1noc(C)c1-c1ccn2c(NC(C)(C)CC(C)(C)C)c(CCc3ccc(OC(C)C)cc3)nc2c1` [Compound 30], the “Selectivity Value” value (CBP bromodomain) was 1.
